We go through 24 compounds from ChEMBL document CHEMBL1128387, “Sigma ligands with subnanomolar affinity and preference for the sigma 2 binding site. 2. Spiro-joined benzofuran, isobenzofuran, and benzopyran piperidines” (J Med Chem, 1995).

For orientation: IC50 means the point on the concentration scale where inhibition reaches its midpoint. Read a low IC50 as greater potency in that assay.

Test [1] has as its target Sigma non-opioid intracellular receptor 1 (Rattus norvegicus, UniProt Q9R0C9). The experiment in a line: Compound was evaluated for the binding affinity towards Sigma receptor type 1 using radioligand ([3H]-(+)- Pentazocine) binding assay.
Test [2] has as its target Sigma intracellular receptor 2 (Rattus norvegicus, UniProt Q5U3Y7). Kind of test: Binding affinity towards Sigma receptor type 2 in whole rat brain homogenates except cerebellum using radioligand ([3H]DTG) binding assay. Type of test: tissue-based.

Chain of Sigma non-opioid intracellular receptor 1 (Q9R0C9 whole entry): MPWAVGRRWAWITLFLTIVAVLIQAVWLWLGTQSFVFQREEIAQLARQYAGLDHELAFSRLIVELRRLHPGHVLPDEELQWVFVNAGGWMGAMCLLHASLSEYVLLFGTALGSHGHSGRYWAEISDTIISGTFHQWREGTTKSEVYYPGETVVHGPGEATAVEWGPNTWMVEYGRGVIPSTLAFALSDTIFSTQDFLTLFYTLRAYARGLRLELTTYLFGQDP
Chain of Sigma intracellular receptor 2 (Q5U3Y7 whole entry, looked up): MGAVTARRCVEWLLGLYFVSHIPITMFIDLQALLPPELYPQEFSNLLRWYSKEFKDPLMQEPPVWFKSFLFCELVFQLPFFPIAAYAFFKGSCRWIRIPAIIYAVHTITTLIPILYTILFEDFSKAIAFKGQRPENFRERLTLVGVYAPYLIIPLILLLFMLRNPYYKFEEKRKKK

The compound `Fc1ccc(-n2cc(CCCCN3CCC4(CC3)SCc3ccccc34)c3ccccc32)cc1` had an IC50 in test [1] of 35 nM.

`Fc1ccc(-n2cc(CCCCN3CCC4(CC3)OCc3cccc(F)c34)c3ccccc32)cc1` showed a half-maximal inhibitory concentration (IC50) in test [1] of 150 nM.

Take `CCN1CCC2(CC1)OCc1ccccc12`: the half-inhibitory concentration (IC50) stood at 270 nM in test [2] and 140 nM in test [1].

`Fc1ccc(-n2cc(CCCCN3CCC4(CC3)Cc3ccccc3O4)c3ccccc32)cc1` showed a concentration for half-maximal inhibition (IC50) in test [1] of 360 nM.

Take `c1ccc(CN2CCC3(CCCc4ccccc43)CC2)cc1`: in test [2], the half-inhibitory concentration (IC50) amounted to 12 nM.

Compound `c1ccc(CCCCN2CCC3(CC2)OCc2ccccc23)cc1` yielded an IC50 in test [1] of 0.27 nM.

Regarding `Fc1ccc(-n2cc(CCCCN3CCC4(CC3)COc3ccccc34)c3ccccc32)cc1`, the concentration for half-maximal inhibition (IC50) in test [1] was found to be 3.8 nM.

Compound `Fc1ccc(-n2cc(CCCCN3CCC4(CC3)COc3ccccc3C4)c3ccccc32)cc1` displayed an IC50 in test [1] of 200 nM. Compared with the last compound, the IC50 is about 53-fold higher.

As for `Fc1ccc(-n2cc(CCCCN3CCC4(CCOc5ccccc54)CC3)c3ccccc32)cc1`, the concentration for half-maximal inhibition (IC50) in test [1] amounted to 7 nM.

In test [1], `c1ccc2c(c1)COC21CCN(CCCOC2CCCCC2)CC1` yielded an IC50 of 0.4 nM.

`Fc1ccc(-n2cc(CCCCN3CCC4(CC3)OCc3c(F)cccc34)c3ccccc32)cc1`: in test [1], the IC50 turned out to be 290 nM.

`c1ccc(CCCN2CCC3(CC2)OCc2ccccc23)cc1` had an IC50 in test [1] of 0.56 nM.

In test [1], `Fc1ccc(-n2cc(CCCCN3CCC4(CC3)OCc3c(C(F)(F)F)cccc34)c3ccccc32)cc1` came in with an IC50 of 180 nM.

In turn, `Fc1ccc(-n2cc(CCCCN3CCC4(CC3)Oc3ccccc3O4)c3ccccc32)cc1` registered an IC50 in test [1] of 430 nM.

On to `CC(C)N1CCC2(CC1)OCc1ccccc12`, for which the 50% inhibitory concentration (IC50) was 49 nM in test [2] and 31 nM in test [1].

As to `c1ccc2c(c1)COC21CCN(CCCCC2CCCCC2)CC1`, in test [1], the IC50 is 1.5 nM. That is a single-digit nanomolar value.

`Fc1ccc(-n2cc(CCCCN3CCC4(CC3)Cc3ccccc3CO4)c3ccccc32)cc1` showed a half-maximal inhibitory concentration (IC50) in test [1] of 23 nM.

With `Fc1ccc(-n2cc(CCCCN3CCC4(CC3)COCc3ccccc34)c3ccccc32)cc1`, in test [1], the IC50 turned out to be 3.4 nM.

`CCCN1CCC2(CC1)OCc1ccccc12`: the IC50 came to 23 nM in test [2] and 4.7 nM in test [1].

For the compound `Cc1ccc2c(c1)COC21CCN(CCCCc2cn(-c3ccc(F)cc3)c3ccccc23)CC1`, the IC50 is 2.3 nM in test [2] and 9.5 nM in test [1].

On to `c1ccc(CCCCCN2CCC3(CC2)OCc2ccccc23)cc1`, for which the IC50 in test [1] was 0.82 nM.

Take `c1ccc2c(c1)COC21CCNCC1`: the IC50 in test [2] was found to be 11000 nM; in test [1], 630 nM.

`c1ccc(CCN2CCC3(CC2)OCc2ccccc23)cc1` displayed a concentration for half-maximal inhibition (IC50) in test [1] of 2.2 nM.

In test [1], `Fc1ccc(-n2cc(CCCCN3CCC4(CC3)OCCc3ccccc34)c3ccccc32)cc1` came in with an IC50 of 53 nM. This IC50 is about 24-fold higher than that of the compound before.
